What all share (assay): NCI tumour cell line growth inhibition, 48 h
Assay [1] deals with DLD-1 colon.
Assay [2] relates to DMS 273 small cell lung.
Assay [3] relates to HOP-18 NSCLC.
Assay [4] relates to KM20L2 colon.
Assay [5] relates to M19-MEL melanoma.
In assay [6] the test system is P388 leukemia.
For assay [7], the system named is P388/ADR leukemia.
Assay [8] deals with SN12K1 renal.
The test system of assay [9] is SNB-78 CNS.
The subject of assay [10] is XF 498 CNS.
In assay [11] the test system is LXFL 529 NSCLC.
Assay [12] relates to RXF-631 renal.

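96-well plates; 48 h exposure; 5 concentrations. Endpoints by linear interpolation between flanking doses. Not reached: highest tested concentration assigned. TGI denotes the concentration required for complete inhibition of growth.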 Some results are limits rather than exact numbers.

On to `C=CCn1c2ccccc2c2c(C)c3cnccc3c(C)c21`, for which the TGI is > 121 µM in assay [1]; 37.7 µM in assay [2]; > 125 µM in assay [3]; 112 µM in assay [4]; 58 µM in assay [5]; 20.8 µM in [6]. Moreover, the TGI came to 37.3 µM in assay [7], 52.5 µM in [8], 125 µM in [9] and 28.7 µM in [10].

Regarding `CC(/C=C/c1ncccc1OCCCCCC(=O)O)=N\NC1=NCCN1`, the TGI in assay [1], in [2], in assay [4], in assay [11], in [5] and in assay [10] was > 100 µM each time.

Take `CN(C)C(=S)Nc1nnc(NC23CC4CC(CC(C4)C2)C3)s1`: the TGI in assay [2] was 55.3 µM; in assay [4], 24.8 µM; in assay [5], 43.6 µM; in [9], > 100 µM.

As to `COCCO`, the TGI in [4], in assay [6], in [7] and in assay [8] was > 100 µM throughout.

For `C#CCNC(=O)CCC(N)C(=O)O` (stereo not given), the TGI in assay [1], in [2], in assay [3], in assay [4], in assay [5] and in [6] was > 100 µM each time. For the same compound, the TGI in assay [7], in assay [8], in assay [9] and in assay [10] was > 100 µM in each case.

For the compound `COC1/C=C\C=C(/C)C(=O)NC2=CC(=O)C=C(C2=O)C(OC)C(C)CC(OC)C(OC)C(C)/C=C(/C)C1OC(N)=O` (stereo not given), the TGI is 8.02 µM in [1]; 27.3 µM in [2]; 17.2 µM in [4]; 18 µM in assay [5]; 3.47 µM in assay [7]; 14.7 µM in assay [8]. Also, the TGI in assay [9] came out at 17.2 µM; in assay [10], 4.83 µM.

As to `Cc1ccc2nc3c(C(=O)NCCN(C)C)cccc3cc2c1`, the TGI in assay [1] was 8.85 µM; in assay [2] it was 6.02 µM; in assay [3], 5.76 µM; in assay [4], 5.58 µM; in assay [5] it was 4.66 µM; in [7], 4.69 µM. The TGI in [8] came out at 3.35 µM; in assay [9], 15 µM; in assay [10] it was 3.67 µM.

With `NCCCNCCSSCc1ccccc1CSSCCNCCCN`, the TGI in assay [1], in assay [2], in assay [3], in assay [4], in assay [11] and in assay [5] was > 100 µM in each case. The TGI in assay [12], in assay [9] and in [10] was > 100 µM throughout.

For the origin of these results see PubChem BioAssay (NCI).
